Laboratory results as given in patent US20230098332A1, “HETEROCYCLIC DERIVATIVES AS TRMP8 ANTAGONISTS” (Givaudan SA, priority 2020, published 2023).
Structures can show the parent of a compound that is named as a salt.

Target: T1, hTRPM8 (Homo sapiens, UniProt Q7Z2W7)
T1 construct: expressed in transfected cells
Assay: Assay on TRPM8 modulators: calcium imaging (Fluo-4, Flexstation) in HEK293 cell line stably expressing hTRPM8
Assay type: cell-based
Conditions: TRPM8 agonist activity, calcium influx, HEK293 stably expressing hTRPM8, sigmoidal dose-response fit
Method: A HEK293 cell line stably expressing hTRPM8 was generated according to Klein et al., (Chem. Senses 36: 649-658, 2011) and receptor activation was monitored by calcium imaging in a Flexstation. For Ca-imaging assays of TRPM8 channel activation, cells were seeded on day 0 at a density of 12000 cells per well in Dulbecco's modified Eagle medium (DMEM) containing 9% foetal bovine serum in black, clear bottom 96-well plates that had been coated with 0.001% polyethyleneimine (molecular weight=60 000, Acros Organics). On day 2, agonists were evaluated via calcium imaging using Fluo-4. Briefly, growth medium was discarded, and the cells were incubated in the dark for 1 h at 37° C. in 50 μL loading buffer consisting of 2.7 μM Fluo-4 AM (Invitrogen) and […] probenecid (Sigma-Aldrich) in DMEM (without serum). After incubation, the plates were washed five times with 100 μL of assay buffer (in mM: 130 NaCl, 5 KCl, 10 HEPES, 2 CaCl2, and 10 glucose, pH7.4.) and further incubated in the dark at room temperature for 30 min. The cells were then washed five times with 100 μL assay buffer and then calcium influx to serial dilutions of inventive compounds were measured in a Flexstation 3 (Molecular Devices). Receptor activation was initiated following addition of 20 μl of a 10-fold concentrated ligand stock solution, which is also prepared in assay buffer. Fluorescence was continuously monitored for 15 seconds prior to ligand addition and for 105 seconds after ligand addition, for a total of 120 seconds. Maximal receptor activation in relation to solvent control and relative to 31.6 μM menthol is determined. Data from serial dilutions were processed with a KNIME workflow to fit a sigmoidal dose-response curve and to extrapolate EC50 values.

T1 sequence (Q7Z2W7 whole entry): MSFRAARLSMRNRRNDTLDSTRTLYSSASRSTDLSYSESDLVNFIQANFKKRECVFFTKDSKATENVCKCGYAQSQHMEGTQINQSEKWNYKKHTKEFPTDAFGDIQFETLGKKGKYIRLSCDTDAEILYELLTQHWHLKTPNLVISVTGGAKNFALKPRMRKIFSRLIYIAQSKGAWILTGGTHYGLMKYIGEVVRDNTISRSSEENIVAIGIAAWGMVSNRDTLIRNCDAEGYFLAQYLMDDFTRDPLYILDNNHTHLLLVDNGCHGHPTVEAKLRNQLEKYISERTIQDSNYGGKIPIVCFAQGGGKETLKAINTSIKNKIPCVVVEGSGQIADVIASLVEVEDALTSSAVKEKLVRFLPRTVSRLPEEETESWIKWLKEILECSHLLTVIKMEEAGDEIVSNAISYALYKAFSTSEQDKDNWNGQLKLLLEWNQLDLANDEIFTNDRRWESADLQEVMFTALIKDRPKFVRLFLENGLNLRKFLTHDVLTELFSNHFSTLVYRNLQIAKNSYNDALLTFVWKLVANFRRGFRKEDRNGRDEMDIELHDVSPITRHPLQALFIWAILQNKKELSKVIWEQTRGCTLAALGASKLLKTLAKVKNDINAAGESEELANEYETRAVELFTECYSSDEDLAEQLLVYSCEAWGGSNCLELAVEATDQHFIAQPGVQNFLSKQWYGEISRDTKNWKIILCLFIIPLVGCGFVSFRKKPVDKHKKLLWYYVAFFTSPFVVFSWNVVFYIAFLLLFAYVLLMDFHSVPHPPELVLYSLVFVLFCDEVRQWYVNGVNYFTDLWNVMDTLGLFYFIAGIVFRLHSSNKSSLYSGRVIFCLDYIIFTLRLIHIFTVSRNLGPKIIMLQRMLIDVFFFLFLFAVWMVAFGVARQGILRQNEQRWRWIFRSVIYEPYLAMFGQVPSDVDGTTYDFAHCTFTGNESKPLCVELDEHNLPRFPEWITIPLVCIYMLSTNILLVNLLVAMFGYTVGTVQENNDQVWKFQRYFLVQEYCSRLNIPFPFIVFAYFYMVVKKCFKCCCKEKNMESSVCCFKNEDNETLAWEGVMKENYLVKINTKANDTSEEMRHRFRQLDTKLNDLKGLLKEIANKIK

SMILES | EC50
Cc1ccc(OCCN2CCNCC2)c(Cc2ccccc2)c1 [compound 88, 1-(2-(2-benzyl-4-methylphenoxy)ethyl)piperazine] | 1 to 35 µM
Cc1ccc(OCCN2CCC(O)CC2)c(Cc2ccccc2)c1 [compound 89, 1-(2-(2-benzyl-4-methylphenoxy)ethyl)piperidin-4-ol] | 1 to 35 µM
Cc1ccc(OC(C)CN2CCN(C)CC2)c(Cc2ccccc2)c1 (centres unmarked) [compound 91, 1-(2-(2-benzyl-4-methylphenoxy)propyl)-4-methylpiperazine hydrochloride] | 0.3 to 1 µM
Cc1cccc(Cc2ccccc2)c1OCCN1CCN(C)CC1 [compound 92, 1-(2-(2-benzyl-6-methylphenoxy)ethyl)-4-methylpiperazine] | 1 to 35 µM
CN1CCN(CCOc2ccccc2Cc2ccccc2)CC1 [compound 93, 1-(2-(2-benzylphenoxy)ethyl)-4-methylpiperazine hydrochloride] | 1 to 35 µM
Cc1ccc(OCCN2CCN(C)CC2)c(CC(C)C)c1 [compound 94, 1-(2-(2-isobutyl-4-methylphenoxy)ethyl)-4-methylpiperazine] | 1 to 35 µM
Cc1ccc(CCN2CCN(C)CC2)c(Cc2ccccc2)c1 [compound 96, 1-(2-benzyl-4-methylphenethyl)-4-methylpiperazine] | 1 to 35 µM
Cc1ccc(CC(O)CN2CCN(C)CC2)c(Cc2ccccc2)c1 (centres unmarked) [compound 97, 1-(2-benzyl-4-methylphenyl)-3-(4-methylpiperazin-1-yl)propan-2-ol] | 0.3 to 1 µM
Cc1ccc(CC(=O)CN2CCN(C)CC2)c(Cc2ccccc2)c1 [compound 98, 1-(2-benzyl-4-methylphenyl)-3-(4-methylpiperazin-1-yl)propan-2-one] | 1 to 35 µM
Cc1ccc(OCCCN2CCN(C)CC2)c(Cc2ccccc2)c1 [compound 99, 1-(3-(2-benzyl-4-methylphenoxy)propyl)-4-methylpiperazine hydrochloride] | 1 to 35 µM
Cc1ccc(OCCN2CCN(C)CC2)c(C(C)c2ccccc2)c1 (centres unmarked) [compound 101, 1-methyl-4-(2-(4-methyl-2-(1-phenylethyl)phenoxy)ethyl)piperazine] | 0.3 to 1 µM
C=C(c1ccccc1)c1cc(C)ccc1OCCN1CCN(C)CC1 [compound 102, 1-methyl-4-(2-(4-methyl-2-(1-phenylvinyl)phenoxy)ethyl)piperazine] | 0.3 to 1 µM
Cc1ccc(OCCN2CCN(C)CC2)c(Cc2ccccc2C)c1 [compound 103, 1-methyl-4-(2-(4-methyl-2-(2-methylbenzyl)phenoxy)ethyl)piperazine] | 0.3 to 1 µM
Cc1cccc(Cc2cc(C)ccc2OCCN2CCN(C)CC2)c1 [compound 104, 1-methyl-4-(2-(4-methyl-2-(3-methylbenzyl)phenoxy)ethyl)piperazine] | 1 to 35 µM
Cc1ccc(OCCN2CCN(C)CC2)c(Cc2cccs2)c1 [compound 105, 1-methyl-4-(2-(4-methyl-2-(thiophen-2-ylmethyl)phenoxy)ethyl)piperazine hydrochloride] | 0.3 to 1 µM
Cc1cc(C)c(OC(C)CO)c(Cc2ccccc2C#N)c1 (centres unmarked) [compound 106, 2-(2-((1-hydroxypropan-2-yl)oxy)-3,5-dimethylbenzyl)benzonitrile] | 0.3 to 1 µM

SMILES | EC50
Cc1ccc(CC(O)CN2CCOCC2)c(Oc2ccccc2C#N)c1 (centres unmarked) [compound 107, 2-(2-(2-hydroxy-3-morpholinopropyl)-5-methylphenoxy)benzonitrile] | 0.05 to 0.3 µM
Cc1cc(C)c(OCCN2CCN(C)CC2)cc1Cc1ccccc1C#N [compound 109, 2-(2,4-dimethyl-5-(2-(4-methylpiperazin-1-yl)ethoxy)benzyl)benzonitrile] | 1 to 35 µM
Cc1ccc(NCCN2CCOCC2)c(Cc2c(F)cccc2F)c1 [compound 110, 2-(2,6-difluorobenzyl)-4-methyl-N-(2-morpholinoethyl)aniline] | 0.3 to 1 µM
Cc1ccc(N(C)CCN2CCOCC2)c(Cc2c(F)cccc2F)c1 [compound 112, 2-(2,6-difluorobenzyl)-N,4-dimethyl-N-(2-morpholinoethyl)aniline] | < 0.05 µM
Cc1cc(C)c(OC(C)CN2CCN(C)CC2)c(Cc2ccccc2C#N)c1 (centres unmarked) [compound 115, 2-(3,5-dimethyl-2-((1-(4-methylpiperazin-1-yl)propan-2-yl)oxy)benzyl)benzonitrile] | 0.05 to 0.3 µM
Cc1cc(C)c(OC(C)CN2CCN(C)CC2)c(Cc2ccccc2C#N)c1 (centres unmarked) [compound 116, 2-(3,5-dimethyl-2-((1-(4-methylpiperazin-1-yl)propan-2-yl)oxy)benzyl)benzonitrile hydrochloride] | 0.05 to 0.3 µM
Cc1ccc(Oc2ccccc2C#N)c(CCCN2CCN(C)CC2)c1 [compound 127, 2-(4-methyl-2-(3-(4-methylpiperazin-1-yl)propyl)phenoxy)benzonitrile] | 1 to 35 µM
Cc1ccc(OCCC2CCN(C)CC2)c(Cc2ccccc2C#N)c1 [compound 128, 2-(5-methyl-2-(2-(1-methylpiperidin-4-yl)ethoxy)benzyl)benzonitrile] | 1 to 35 µM
Cc1ccc(OCCN2CCN(C)CC2)c(Cc2ccccc2C#N)c1 [compound 129, 2-(5-methyl-2-(2-(4-methylpiperazin-1-yl)ethoxy)benzyl)benzonitrile] | 0.05 to 0.3 µM
Cc1ccc(OCCN2CCOCC2)c(CC2CCCCC2=O)c1 (centres unmarked) [compound 131, 2-(5-methyl-2-(2-morpholinoethoxy)benzyl)cyclohexan-1-one] | 1 to 35 µM
Cc1ccc(CCCN2CCN(C)CC2)c(Oc2ccccc2C#N)c1 [compound 133, 2-(5-methyl-2-(3-(4-methylpiperazin-1-yl)propyl)phenoxy)benzonitrile] | 0.05 to 0.3 µM
Cc1ccc(NCCN2CCN(C)CC2)c(Cc2ccccc2)c1 [compound 135, 2-benzyl-4-methyl-N-(2-(4-methylpiperazin-1-yl)ethyl)aniline] | 1 to 35 µM
Cc1ccc(OC(=O)CN2CCN(C)CC2)c(Cc2ccccc2)c1 [compound 136, 2-benzyl-4-methylphenyl 2-(4-methylpiperazin-1-yl)acetate] | 1 to 35 µM
Cc1cc(C)c(OCCN2CCN(C)CC2)c(Cc2cccc(C#N)c2)c1 [compound 139, 3-(3,5-dimethyl-2-(2-(4-methylpiperazin-1-yl)ethoxy)benzyl)benzonitrile dihydrochloride] | 1 to 35 µM
Cc1cc(C)c(OCC(C)N2CCOCC2)c(Cc2c(F)cccc2F)c1 (centres unmarked) [compound 143, 4-(1-(2-(2,6-difluorobenzyl)-4,6-dimethylphenoxy)propan-2-yl)morpholine] | 0.05 to 0.3 µM

Next, values leading:

EC50 | SMILES
0.05 to 0.3 µM | Cc1cc(C)c(OCCN2CCOCC2)c(Cc2ccccc2CC#N)c1 [compound 108, 2-(2-(3,5-dimethyl-2-(2-morpholinoethoxy)benzyl)phenyl)acetonitrile]
0.3 to 1 µM | Cc1cc(C)c(N(C)CCN2CCOCC2)c(Cc2c(F)cccc2F)c1 [compound 111, 2-(2,6-difluorobenzyl)-N,4,6-trimethyl-N-(2-morpholinoethyl)aniline]
0.3 to 1 µM | Cc1cc(C)c(N(C)CCN2CCOCC2)c(Cc2ccccc2F)c1 [compound 113, 2-(2-fluorobenzyl)-N,4,6-trimethyl-N-(2-morpholinoethyl)aniline]
0.05 to 0.3 µM | Cc1ccc(N(C)CCN2CCOCC2)c(Cc2ccccc2F)c1 [compound 114, 2-(2-fluorobenzyl)-N,4-dimethyl-N-(2-morpholinoethyl)aniline]
0.05 to 0.3 µM | Cc1cc(C)c(OCCN2CCN(C)CC2)c(Cc2ccccc2C#N)c1 [compound 117, 2-(3,5-dimethyl-2-(2-(4-methylpiperazin-1-yl)ethoxy)benzyl)benzonitrile]
0.05 to 0.3 µM | Cc1cc(C)c(OCCN2CCOCC2)c(Cc2c(F)cccc2C#N)c1 [compound 120, 2-(3,5-dimethyl-2-(2-morpholinoethoxy)benzyl)-3-fluorobenzonitrile]
1 to 35 µM | Cc1cc(C)c(OCCN2CCOCC2)c(Cc2ccccc2N)c1 [compound 121, 2-(3,5-dimethyl-2-(2-morpholinoethoxy)benzyl)aniline]
0.05 to 0.3 µM | Cc1cc(C)c(OCCCN2CCOCC2)c(Cc2ccccc2C#N)c1 [compound 124, 2-(3,5-dimethyl-2-(3-morpholinopropoxy)benzyl)benzonitrile]
< 0.05 µM | Cc1cc(C)c(N(C)CCN2CCOCC2)c(Cc2ccccc2C#N)c1 [compound 126, 2-(3,5-dimethyl-2-(methyl(2-morpholinoethyl)amino)benzyl)benzonitrile]
0.3 to 1 µM | Cc1ccc(OCC(C)N2CCOCC2)c(Cc2ccccc2C#N)c1 (centres unmarked) [compound 132, 2-(5-methyl-2-(2-morpholinopropoxy)benzyl)benzonitrile]
0.05 to 0.3 µM | Cc1ccc(N(C)CCN2CCOCC2)c(Cc2ccccc2)c1 [compound 138, 2-benzyl-N,4-dimethyl-N-(2-morpholinoethyl)aniline]
0.3 to 1 µM | Cc1cc(C)c(OCCN2CCOCC2)c(Cc2c(Br)cccc2C#N)c1 [compound 141, 3-bromo-2-(3,5-dimethyl-2-(2-morpholinoethoxy)benzyl)benzonitrile]
0.3 to 1 µM | Cc1cc(C)c(OCCN2CCOCC2)c(Cc2c(Cl)cccc2C#N)c1 [compound 142, 3-chloro-2-(3,5-dimethyl-2-(2-morpholinoethoxy)benzyl)benzonitrile]
